{"source": "ChEMBL document CHEMBL1152909", "about": "“Low molecular weight non-peptide mimics of omega-conotoxin GVIA” (Bioorg Med Chem Lett, 2009)", "note": "Active and inactive are the calls of the source. The calls are words filed in the database; no cut-off is given here."}
{"molecular_target": "Voltage-dependent N-type calcium channel subunit alpha-1B (Rattus norvegicus) (UniProt Q02294)", "sequence (Q02294 whole entry, looked up)": "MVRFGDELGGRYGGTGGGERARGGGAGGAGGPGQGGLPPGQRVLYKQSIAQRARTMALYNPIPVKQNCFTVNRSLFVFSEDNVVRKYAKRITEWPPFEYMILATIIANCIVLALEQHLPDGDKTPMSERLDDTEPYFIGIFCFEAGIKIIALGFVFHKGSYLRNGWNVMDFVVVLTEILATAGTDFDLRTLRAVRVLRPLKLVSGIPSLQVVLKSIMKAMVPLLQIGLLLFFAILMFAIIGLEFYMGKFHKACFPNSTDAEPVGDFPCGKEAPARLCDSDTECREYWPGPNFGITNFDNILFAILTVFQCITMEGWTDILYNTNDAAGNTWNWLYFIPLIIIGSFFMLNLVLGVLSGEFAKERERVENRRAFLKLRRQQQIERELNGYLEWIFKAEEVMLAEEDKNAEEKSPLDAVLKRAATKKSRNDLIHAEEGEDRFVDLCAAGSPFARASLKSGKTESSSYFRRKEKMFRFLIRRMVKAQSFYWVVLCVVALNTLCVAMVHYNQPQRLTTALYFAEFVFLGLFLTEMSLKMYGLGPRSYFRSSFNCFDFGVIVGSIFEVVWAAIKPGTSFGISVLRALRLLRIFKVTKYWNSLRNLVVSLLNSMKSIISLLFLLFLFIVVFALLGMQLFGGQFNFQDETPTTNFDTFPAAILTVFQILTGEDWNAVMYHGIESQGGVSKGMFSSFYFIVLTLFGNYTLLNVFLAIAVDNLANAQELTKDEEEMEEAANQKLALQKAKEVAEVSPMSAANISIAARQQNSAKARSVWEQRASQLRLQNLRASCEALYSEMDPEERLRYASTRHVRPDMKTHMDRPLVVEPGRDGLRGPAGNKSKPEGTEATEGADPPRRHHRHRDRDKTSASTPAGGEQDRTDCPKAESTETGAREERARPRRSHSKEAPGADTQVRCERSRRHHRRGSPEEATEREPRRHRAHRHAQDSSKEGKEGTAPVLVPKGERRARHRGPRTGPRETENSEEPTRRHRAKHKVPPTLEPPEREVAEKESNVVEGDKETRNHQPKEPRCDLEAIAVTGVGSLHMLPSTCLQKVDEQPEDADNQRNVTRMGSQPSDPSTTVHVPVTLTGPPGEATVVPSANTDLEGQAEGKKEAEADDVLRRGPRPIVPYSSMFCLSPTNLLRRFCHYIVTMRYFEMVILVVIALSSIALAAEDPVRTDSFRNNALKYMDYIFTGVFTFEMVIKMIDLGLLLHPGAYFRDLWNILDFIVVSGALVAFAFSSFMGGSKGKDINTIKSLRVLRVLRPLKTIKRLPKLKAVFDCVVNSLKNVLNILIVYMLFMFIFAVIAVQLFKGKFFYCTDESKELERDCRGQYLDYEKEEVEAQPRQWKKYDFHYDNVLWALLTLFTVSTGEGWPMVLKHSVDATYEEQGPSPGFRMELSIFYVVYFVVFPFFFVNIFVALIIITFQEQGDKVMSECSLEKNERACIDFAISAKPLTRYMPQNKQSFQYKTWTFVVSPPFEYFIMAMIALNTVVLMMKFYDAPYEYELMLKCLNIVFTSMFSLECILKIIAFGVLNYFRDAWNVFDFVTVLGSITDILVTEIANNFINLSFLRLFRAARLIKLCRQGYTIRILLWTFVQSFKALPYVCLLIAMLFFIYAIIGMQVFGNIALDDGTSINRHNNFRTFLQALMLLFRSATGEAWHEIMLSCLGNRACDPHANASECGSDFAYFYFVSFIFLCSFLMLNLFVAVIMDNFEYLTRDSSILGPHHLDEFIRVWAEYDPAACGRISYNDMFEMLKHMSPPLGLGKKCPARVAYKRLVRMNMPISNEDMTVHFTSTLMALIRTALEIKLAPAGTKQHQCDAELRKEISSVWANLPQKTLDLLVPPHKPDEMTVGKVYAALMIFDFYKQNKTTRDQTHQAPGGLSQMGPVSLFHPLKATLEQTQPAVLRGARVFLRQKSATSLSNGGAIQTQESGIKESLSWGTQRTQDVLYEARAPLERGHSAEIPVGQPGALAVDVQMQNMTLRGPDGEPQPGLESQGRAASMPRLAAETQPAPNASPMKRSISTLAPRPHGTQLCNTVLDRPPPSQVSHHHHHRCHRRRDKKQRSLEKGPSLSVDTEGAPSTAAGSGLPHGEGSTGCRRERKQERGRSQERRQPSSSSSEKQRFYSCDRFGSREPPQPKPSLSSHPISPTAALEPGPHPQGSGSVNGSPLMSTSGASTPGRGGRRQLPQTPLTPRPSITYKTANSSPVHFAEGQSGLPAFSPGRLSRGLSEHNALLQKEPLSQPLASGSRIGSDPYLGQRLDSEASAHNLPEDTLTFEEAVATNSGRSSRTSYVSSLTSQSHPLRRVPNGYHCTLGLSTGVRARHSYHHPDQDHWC", "assay": "(§1) Inhibition of rat neuronal Cav2.2 channel"}
{"smiles": "Oc1ccc(CNc2nc3ccc(Oc4ccccc4)cc3s2)cc1", "Activity": "inactive"}
{"smiles": "[N-]=[N+]=NCCCOc1ccc(CNc2nc3ccc(Oc4ccccc4)cc3s2)cc1", "Activity": "inactive"}
{"smiles": "ClCCCOc1ccc(CNc2nc3ccc(Oc4ccccc4)cc3s2)cc1", "Activity": "inactive"}
{"smiles": "CC(C)(C)OC(=O)NCCCOc1ccc(CNc2nc3ccc(Oc4ccccc4)cc3s2)cc1", "Activity": "inactive"}
{"molecular_target": "Voltage-dependent N-type calcium channel subunit alpha-1B (Rattus norvegicus, UniProt Q02294)", "sequence (Q02294 whole entry)": "as the sequence (Q02294 whole entry, looked up) above", "assay": "as §1", "units": {"EC50": "µM"}}
{"smiles": "NCCCOc1ccc(CNC(c2ccccc2)c2ccccc2)cc1", "EC50": "> 100"}
{"smiles": "NC(N)=NCCCOc1ccc(CNC(c2ccccc2)c2ccccc2)cc1", "EC50": 23}
{"smiles": "NC(N)=NCCCOc1ccc(CNc2ccc(Oc3ccccc3)cc2)cc1", "EC50": 21}
{"smiles": "NCCCOc1ccc(CNCC(c2ccccc2)c2ccccc2)cc1", "EC50": "> 100"}
{"smiles": "NCCCOc1ccc(CNc2nc3ccc(Oc4ccccc4)cc3s2)cc1", "EC50": 76}
{"smiles": "NCCCOc1ccccc1C(=O)N(Cc1ccc(OCCCN=C(N)N)cc1)c1nc2ccc(Oc3ccccc3)cc2s1", "EC50": 3.08}
{"smiles": "NCCCOc1ccc(CN(C(=O)c2ccccc2OCCCN)c2nc3ccc(Oc4ccc(O)cc4)cc3s2)cc1", "EC50": 3.18}
{"smiles": "NC(N)=NCCCOc1ccc(CNCC(c2ccccc2)c2ccccc2)cc1", "EC50": 12}
{"smiles": "NCCCOc1ccccc1C(=O)N(Cc1ccc(OCCCN=C(N)N)cc1)c1nc2ccc(Oc3ccc(O)cc3)cc2s1", "EC50": 1.78}
{"smiles": "NC(N)=NCCCOc1ccccc1C(=O)Nc1nc2ccc(Oc3ccccc3)cc2s1", "EC50": 33}
{"smiles": "NC(N)=NCCCOc1ccc(CNc2nc3ccc(Oc4ccccc4)cc3s2)cc1", "EC50": 5.8}
{"smiles": "NCCCOc1ccc(CNc2ccc(Oc3ccccc3)cc2)cc1", "EC50": 34}
{"smiles": "NCCCOc1ccccc1C(=O)Nc1nc2ccc(Oc3ccccc3)cc2s1", "EC50": "> 100"}
